Test results from patent EP0908457B1, “3-(1,2-benzisothiazol- and isoxazol-5-Y1)-2,4(1H,3H)-pyrimidinedione or thione and 3-(1,2-benzisothiazol- and isoxazol-5-y1)-4(3H)-pyrimidinone or thione herbicidal agents” (BASF AKTIENGESELLSCHAFT, priority 1997, dated 1999).

Assays:
Cyperus iria = assay: Preemergence weed control under flooded paddy conditions, CYPIR (Rice Flatsedge); type: in vivo; conditions: flooded paddy; for herbicidal effect rating, CYPIR / CYPIR herbicidal rating: rated three to four weeks after treatment; for CYPIR: herbicidal effect rating 0-9, three to four weeks after treatment; as to herbicidal effect rating, CYPIR: meaning of each grade not given here
[1] = system: Cyperus serotinus, Rottb.; assay: Preemergence weed control under flooded paddy conditions, CYPSE (Flatsedge); type: in vivo; conditions: for herbicidal effect rating, CYPSE / CYPSE herbicidal rating: rated three to four weeks after treatment; for CYPSE: herbicidal effect rating 0-9, three to four weeks after treatment; as to herbicidal effect rating, CYPSE: meaning of each grade not given here
[2] = system: Echinochloa oryzoides (Ard.) Fritsch.; assay: Preemergence weed control under flooded paddy conditions, ECHORC (Watergrass (Calif.)); type: in vivo; conditions: flooded paddy; for herbicidal effect rating, ECHORC / ECHORC herbicidal rating: rated three to four weeks after treatment; for ECHORC: herbicidal effect rating 0-9, three to four weeks after treatment; as to herbicidal effect rating, ECHORC: meaning of each grade not given here
[3] = system: Monochoria vaginalis, Presl.; assay: Preemergence weed control under flooded paddy conditions, MOOVA (Monochoria); type: in vivo; conditions: flooded paddy; for herbicidal effect rating, MOOVA / MOOVA herbicidal rating: rated three to four weeks after treatment; for MOOVA: herbicidal effect rating 0-9, three to four weeks after treatment; as to herbicidal effect rating, MOOVA: meaning of each grade not given here
[4] = system: Oryza sativa, (L.) Tebonnet; assay: Rice tolerance to post-transplant applications under flooded paddy conditions (Example 187), ORYSAT (Rice, Tebonnet); conditions: for herbicidal effect rating, ORYSAT (rice tolerance) / ORYSAT herbicidal rating (rice tolerance) / herbicidal effect rating ORYSAT: rated three to four weeks after treatment; for ORYSAT: herbicidal effect rating 0-9, three to four weeks after treatment
Sagittaria pygmaea, L. = assay: Preemergence weed control under flooded paddy conditions, SAGPY (Arrowhead (Pygmaea)); type: in vivo; conditions: flooded paddy; for herbicidal effect rating, SAGPY / SAGPY herbicidal rating: rated three to four weeks after treatment; for SAGPY: herbicidal effect rating 0-9, three to four weeks after treatment; as to herbicidal effect rating, SAGPY: meaning of each grade not given here
[5] = Rate 0.0320 kg/ha, preemergence
[6] = Rate 0.0620 kg/ha, preemergence
[7] = Rate 0.1250 kg/ha, preemergence
[8] = Rate 0.2500 kg/ha, preemergence
[9] = 0.0320 kg/ha, preemergence weeds
[10] = 0.0620 kg/ha, preemergence weeds
[11] = 0.1250 kg/ha, preemergence weeds
[12] = 0.2500 kg/ha, preemergence weeds
[13] = Rate 0.0320 kg/ha, preemergence weeds
[14] = Rate 0.0620 kg/ha, preemergence weeds
[15] = Rate 0.1250 kg/ha, preemergence weeds
[16] = Rate 0.2500 kg/ha, preemergence weeds

SMILES: Cc1ccc(O)c(-c2noc3ccc(-n4c(=O)cc(C(F)(F)F)n(C)c4=O)c(Cl)c23)c1 [Example 41, 3-[4-Chloro-3-(6-hydroxy-m-tolyl)-1,2-benzisoxazol-5-yl]-1-methyl-6-(trifluoromethyl)-2,4(1H,3H)-pyrimidinedione]
- herbicidal effect rating, CYPIR (Cyperus iria; 0.0313 kg/ha, preemergence): 0.0
- herbicidal effect rating, CYPIR (Cyperus iria; 0.0625 kg/ha, preemergence): 0.0
- herbicidal effect rating, CYPIR (Cyperus iria; 0.1250 kg/ha, preemergence): 1.0
- herbicidal effect rating, CYPIR (Cyperus iria; 0.2500 kg/ha, preemergence): 2.0
- herbicidal effect rating, CYPSE ([1]; 0.0313 kg/ha, preemergence): 0.0
- herbicidal effect rating, CYPSE ([1]; 0.0625 kg/ha, preemergence): 0.0
- herbicidal effect rating, CYPSE ([1]; 0.1250 kg/ha, preemergence): 0.0
- herbicidal effect rating, CYPSE ([1]; 0.2500 kg/ha, preemergence): 0.0
- herbicidal effect rating, ECHORC ([2]; 0.0313 kg/ha, preemergence): 0.0
- herbicidal effect rating, ECHORC ([2]; 0.0625 kg/ha, preemergence): 0.0
- herbicidal effect rating, ECHORC ([2]; 0.1250 kg/ha, preemergence): 2.0
- herbicidal effect rating, ECHORC ([2]; 0.2500 kg/ha, preemergence): 6.0
- herbicidal effect rating, MOOVA ([3]; 0.0313 kg/ha, preemergence): 0.0
- herbicidal effect rating, MOOVA ([3]; 0.0625 kg/ha, preemergence): 2.0
- herbicidal effect rating, MOOVA ([3]; 0.1250 kg/ha, preemergence): 4.0
- herbicidal effect rating, MOOVA ([3]; 0.2500 kg/ha, preemergence): 9.0
- herbicidal effect rating, ORYSAT (rice tolerance) ([4]; 0.0313 kg/ha): 0.0
- herbicidal effect rating, ORYSAT (rice tolerance) ([4]; 0.0625 kg/ha): 0.0
- herbicidal effect rating, ORYSAT (rice tolerance) ([4]; 0.1250 kg/ha): 0.0
- herbicidal effect rating, ORYSAT (rice tolerance) ([4]; 0.2500 kg/ha): 0.0
- herbicidal effect rating, SAGPY (Sagittaria pygmaea, L.; 0.0313 kg/ha, preemergence): 0.0
- herbicidal effect rating, SAGPY (Sagittaria pygmaea, L.; 0.0625 kg/ha, preemergence): 0.0
- herbicidal effect rating, SAGPY (Sagittaria pygmaea, L.; 0.1250 kg/ha, preemergence): 0.0
- herbicidal effect rating, SAGPY (Sagittaria pygmaea, L.; 0.2500 kg/ha, preemergence): 0.0

SMILES: Cc1ccccc1CS(=O)(=O)NC(=O)c1nsc2ccc(-n3c(=O)cc(C(F)(F)F)n(C)c3=O)cc12 [Example 465, 1,2-Benzisothiazole-3-carboxamide, 5-[3,6-dihydro-3-methyl-2,6-dioxo-4-(trifluoromethyl)-1(2H)-pyrimidinyl]-N-[(o-methylbenzyl)sulfonyl]-]
- CYPIR herbicidal rating (Cyperus iria; 0.0320 kg/ha, preemergence): 0.0
- CYPIR herbicidal rating (Cyperus iria; 0.0620 kg/ha, preemergence): 0.0
- CYPIR herbicidal rating (Cyperus iria; 0.1250 kg/ha, preemergence): 3.0
- CYPIR herbicidal rating (Cyperus iria; 0.2500 kg/ha, preemergence): 8.0
- CYPSE herbicidal rating ([1]; 0.0320 kg/ha, preemergence): 0.0
- CYPSE herbicidal rating ([1]; 0.0620 kg/ha, preemergence): 4.0
- CYPSE herbicidal rating ([1]; 0.1250 kg/ha, preemergence): 7.0
- CYPSE herbicidal rating ([1]; 0.2500 kg/ha, preemergence): 9.0
- ECHORC herbicidal rating ([2]; 0.0320 kg/ha, preemergence): 6.0
- ECHORC herbicidal rating ([2]; 0.0620 kg/ha, preemergence): 6.0
- ECHORC herbicidal rating ([2]; 0.1250 kg/ha, preemergence): 7.0
- ECHORC herbicidal rating ([2]; 0.2500 kg/ha, preemergence): 9.0
- MOOVA herbicidal rating ([3]; 0.0320 kg/ha, preemergence): 2.0
- MOOVA herbicidal rating ([3]; 0.0620 kg/ha, preemergence): 3.0
- MOOVA herbicidal rating ([3]; 0.1250 kg/ha, preemergence): 6.0
- MOOVA herbicidal rating ([3]; 0.2500 kg/ha, preemergence): 9.0
- ORYSAT herbicidal rating (rice tolerance) ([4]; 0.0320 kg/ha): 2.0
- ORYSAT herbicidal rating (rice tolerance) ([4]; 0.0620 kg/ha): 3.0
- ORYSAT herbicidal rating (rice tolerance) ([4]; 0.1250 kg/ha): 4.0
- ORYSAT herbicidal rating (rice tolerance) ([4]; 0.2500 kg/ha): 5.0
- SAGPY herbicidal rating (Sagittaria pygmaea, L.; 0.0320 kg/ha, preemergence): 2.0
- SAGPY herbicidal rating (Sagittaria pygmaea, L.; 0.0620 kg/ha, preemergence): 5.0
- SAGPY herbicidal rating (Sagittaria pygmaea, L.; 0.1250 kg/ha, preemergence): 5.0
- SAGPY herbicidal rating (Sagittaria pygmaea, L.; 0.2500 kg/ha, preemergence): 6.0

SMILES: Cn1c(C(F)(F)F)cc(=O)n(-c2ccc3snc(C(C#N)=Cc4ccccn4)c3c2)c1=O [Example 592, 1,2-Benzisothiazole-3-acetonitrile, 5-[3,6-dihydro-3-methyl-2,6-dioxo-4-(trifluoromethyl)-1(2H)-pyrimidinyl]-alpha-(2-pyridylmethylene)-]
- herbicidal effect rating, CYPIR (Cyperus iria; [5]): 2.0
- herbicidal effect rating, CYPIR (Cyperus iria; [6]): 3.0
- herbicidal effect rating, CYPIR (Cyperus iria; [7]): 4.0
- herbicidal effect rating, CYPIR (Cyperus iria; [8]): 6.0
- herbicidal effect rating, CYPSE [1, 5]: 0.0
- herbicidal effect rating, CYPSE [1, 7]: 0.0
- herbicidal effect rating, ECHORC [2, 5]: 0.0
- herbicidal effect rating, ECHORC [2, 6]: 3.0
- herbicidal effect rating, ECHORC [2, 7]: 4.0
- herbicidal effect rating, ECHORC [2, 8]: 5.0
- herbicidal effect rating, MOOVA [3, 5]: 8.0
- herbicidal effect rating, MOOVA [3, 6]: 9.0
- herbicidal effect rating, MOOVA [3, 7]: 9.0
- herbicidal effect rating, MOOVA [3, 8]: 9.0
- herbicidal effect rating ORYSAT ([4]; Rate 0.0320 kg/ha): 2.0
- herbicidal effect rating ORYSAT ([4]; Rate 0.0620 kg/ha): 2.0
- herbicidal effect rating ORYSAT ([4]; Rate 0.1250 kg/ha): 4.0
- herbicidal effect rating ORYSAT ([4]; Rate 0.2500 kg/ha): 4.0
- herbicidal effect rating, SAGPY (Sagittaria pygmaea, L.; [5]): 0.0
- herbicidal effect rating, SAGPY (Sagittaria pygmaea, L.; [6]): 3.0
- herbicidal effect rating, SAGPY (Sagittaria pygmaea, L.; [7]): 3.0

SMILES: CN(C(=O)COc1ccccc1-c1nsc2ccc(-n3c(=O)cc(C(F)(F)F)n(C)c3=O)cc12)S(C)(=O)=O [Example 438, Acetamide, 2-{o-{5-[3,6-dihydro-3-methyl-2,6-dioxo-4-(trifluoromethyl)-1(2H)-pyrimidinyl]-1,2-benzisothiazol-3-yl}phenoxy}-N-methyl-N-(methylsulfonyl)-]
- CYPIR (Cyperus iria; [9]): 4.5
- CYPIR (Cyperus iria; [10]): 6.5
- CYPIR (Cyperus iria; [11]): 8.5
- CYPIR (Cyperus iria; [12]): 9.0
- CYPSE [1, 9]: 4.5
- CYPSE [1, 10]: 9.0
- CYPSE [1, 11]: 7.0
- CYPSE [1, 12]: 9.0
- ECHORC [2, 9]: 7.0
- ECHORC [2, 10]: 8.0
- ECHORC [2, 11]: 9.0
- ECHORC [2, 12]: 9.0
- MOOVA [3, 9]: 8.0
- MOOVA [3, 10]: 8.5
- MOOVA [3, 11]: 9.0
- MOOVA [3, 12]: 9.0
- ORYSAT ([4]; 0.0320 kg/ha): 4.0
- ORYSAT ([4]; 0.0620 kg/ha): 5.0
- ORYSAT ([4]; 0.1250 kg/ha): 7.0
- ORYSAT ([4]; 0.2500 kg/ha): 8.0
- SAGPY (Sagittaria pygmaea, L.; [9]): 2.0
- SAGPY (Sagittaria pygmaea, L.; [10]): 3.5
- SAGPY (Sagittaria pygmaea, L.; [11]): 8.5
- SAGPY (Sagittaria pygmaea, L.; [12]): 9.0

SMILES: Cn1c(C(F)(F)F)cc(=O)n(-c2ccc3snc(C(=O)Nc4nc(C(F)(F)F)c(Cl)s4)c3c2)c1=O [Example 439, 1,2-Benzisothiazole-3-carboxamide, N-[5-chloro-4-(trifluoromethyl)thiazol-2-yl]-5-[3,6-dihydro-3-methyl-2,6-dioxo-4-(trifluoromethyl)-1(2H)-pyrimidinyl]-]
- CYPIR (Cyperus iria; [9]): 1.0
- CYPIR (Cyperus iria; [10]): 3.0
- CYPIR (Cyperus iria; [11]): 4.0
- CYPIR (Cyperus iria; [12]): 5.0
- CYPSE [1, 9]: 0.0
- CYPSE [1, 10]: 0.0
- CYPSE [1, 11]: 0.0
- CYPSE [1, 12]: 0.0
- ECHORC [2, 9]: 2.0
- ECHORC [2, 10]: 3.0
- ECHORC [2, 11]: 6.0
- ECHORC [2, 12]: 6.0
- MOOVA [3, 9]: 5.0
- MOOVA [3, 10]: 6.0
- MOOVA [3, 11]: 7.0
- MOOVA [3, 12]: 7.0
- ORYSAT ([4]; 0.0320 kg/ha): 0.0
- ORYSAT ([4]; 0.0620 kg/ha): 0.0
- ORYSAT ([4]; 0.1250 kg/ha): 0.0
- ORYSAT ([4]; 0.2500 kg/ha): 0.0
- SAGPY (Sagittaria pygmaea, L.; [9]): 0.0
- SAGPY (Sagittaria pygmaea, L.; [10]): 0.0
- SAGPY (Sagittaria pygmaea, L.; [11]): 0.0
- SAGPY (Sagittaria pygmaea, L.; [12]): 3.0

SMILES: Cn1c(C(F)(F)F)cc(=O)n(-c2ccc3snc(C(=O)NS(=O)(=O)CCl)c3c2)c1=O [Example 324, 1,2-Benzisothiazole-3-carboxamide, N-[(chloromethyl)sulfonyl]-5-[3,6-dihydro-3-methyl-2,6-dioxo-4-(trifluoromethyl)-1(2H)-pyrimidinyl]-]
- herbicidal effect rating, CYPIR (Cyperus iria; [13]): 9.0
- herbicidal effect rating, CYPIR (Cyperus iria; [14]): 9.0
- herbicidal effect rating, CYPIR (Cyperus iria; [15]): 9.0
- herbicidal effect rating, CYPIR (Cyperus iria; [16]): 9.0
- herbicidal effect rating, CYPSE [1, 13]: 0.0
- herbicidal effect rating, CYPSE [1, 14]: 0.0
- herbicidal effect rating, CYPSE [1, 15]: 3.0
- herbicidal effect rating, CYPSE [1, 16]: 7.0
- herbicidal effect rating, ECHORC [2, 13]: 0.0
- herbicidal effect rating, ECHORC [2, 14]: 4.0
- herbicidal effect rating, ECHORC [2, 15]: 5.0
- herbicidal effect rating, ECHORC [2, 16]: 6.0
- herbicidal effect rating, MOOVA [3, 13]: 9.0
- herbicidal effect rating, MOOVA [3, 14]: 9.0
- herbicidal effect rating, MOOVA [3, 15]: 9.0
- herbicidal effect rating, MOOVA [3, 16]: 9.0
- herbicidal effect rating ORYSAT ([4]; Rate 0.0320 kg/ha): 3.0
- herbicidal effect rating ORYSAT ([4]; Rate 0.0620 kg/ha): 4.0
- herbicidal effect rating ORYSAT ([4]; Rate 0.1250 kg/ha): 7.0
- herbicidal effect rating ORYSAT ([4]; Rate 0.2500 kg/ha): 9.0
- herbicidal effect rating, SAGPY (Sagittaria pygmaea, L.; [13]): 0.0
- herbicidal effect rating, SAGPY (Sagittaria pygmaea, L.; [14]): 3.0
- herbicidal effect rating, SAGPY (Sagittaria pygmaea, L.; [15]): 9.0
- herbicidal effect rating, SAGPY (Sagittaria pygmaea, L.; [16]): 9.0
